For data set [1] the following is noted: footnote a: Chemistry Dashboard of the US Environmental Protection Agency; cited from earlier work.
The nature of data set [2]: Solubility in water of the active ingredient (Table 1). The settings on record: for solubility: water.
Data set [3] is described as follows: Density of the active ingredient (Table 1). Type of data set: physicochemical.
A further data set is described as follows: physchem. The following applies: water.
For data set [4] the following is noted: footnote a: Chemistry Dashboard of the US Environmental Protection Agency; cited from earlier work. This is another data set of the same source.

The values below come from patent US20210267194A1, “SEED TREATMENT METHOD” (priority 2018, published 2021).

Converted amounts (≈) assume the structure as drawn. Like-named read-outs stand apart in the source and are kept apart here.

Turning to `N#Cc1ccccc1NC(=O)c1snc(Cl)c1Cl` [Isotianil], in data set [1], the Density was 1.56^a g/mL. The “Solubility in Water” value in data set [2] is 0.5 µg/mL (≈ 1.68 µM).

For the compound `CSC1=N[C@@](C)(c2ccccc2)C(=O)N1Nc1ccccc1` [Fenamidone], in data set [3], the Density came out at 1.29 g/mL. The solubility in the data set “physchem” was 7.8 µg/mL (≈ 25 µM).

`O=[N+]([O-])NC1=NCCN1Cc1ccc(Cl)nc1` [Imidacloprid] returned a Density in data set [3] of 1.54 g/mL. Besides, the “Solubility in Water” value in data set [2] was 610 µg/mL (≈ 2390 µM).

As for `O=C(Nc1ccccc1)N(Cc1ccc(Cl)cc1)C1CCCC1` [Pencycuron], the Density in data set [3] was determined as 1.22 g/mL. The “Solubility in Water” value in data set [2] was 0.3 µg/mL (≈ 0.912 µM).

Compound `CON=C(C(=O)OC)c1ccccc1CON=C(C)c1cccc(C(F)(F)F)c1` [Trifloxystrobin] yielded a Density in data set [3] of 1.36 g/mL. In the data set “physchem”, this compound returned a solubility of 0.61 µg/mL (≈ 1.49 µM).

As to `COCC(=O)N(c1c(C)cccc1C)[C@H](C)C(=O)OC` [Metalaxyl-M], in data set [1], the Density is given as 1.09^a g/mL.

With `CC(C1CC1)C(O)(Cn1cncn1)c1ccc(Cl)cc1` (stereo not drawn) [Cyproconazole], the Density in data set [1] is on record as 1.31^a g/mL.

In data set [3], `N#Cc1c[nH]cc1-c1cccc2c1OC(F)(F)O2` [Fludioxinil] showed a Density of 1.54 g/mL. Besides, the “Solubility in Water” value in data set [2] is 1.8 µg/mL (≈ 7.25 µM).

Turning to `OC(Cc1ccccc1Cl)(Cn1nc[nH]c1=S)C1(Cl)CC1` (stereo not drawn) [Prothioconazole], the Density in data set [3] came out at 1.36 g/mL. For the same compound, in data set [2], the concentration in solution (solubility) came to 300 µg/mL (≈ 871 µM).

For the compound `CCCC1COC(Cn2cncn2)(c2ccc(Cl)cc2Cl)O1` (stereo not drawn) [Propiconazole], the Density in data set [1] is recorded as 1.39^a g/mL.

Take `CN1COCN(Cc2cnc(Cl)s2)/C1=N\[N+](=O)[O-]` [Thiamethoxam]: the Density in data set [1] is 1.76^a g/mL. In addition, the “Solubility in Water” value in data set [4] was 1278^a mg/L.

`COCC(=O)N(c1c(C)cccc1C)C(C)C(=O)OC` (stereo not drawn) [Metalaxyl]: the Density in data set [3] is 1.2 g/mL. Also, the concentration in solution in data set [2] (solubility) was 8400 µg/mL (≈ 30100 µM).

In data set [3], `CN/C(=N\[N+](=O)[O-])NCc1cnc(Cl)s1` [Clothianidin] returned a Density of 1.61 g/mL. For the same compound, in data set [2], the concentration in solution (solubility) came to 340 µg/mL (≈ 1360 µM).

Regarding `Fc1ccc([C@]2(Cn3cncn3)O[C@H]2c2ccccc2Cl)cc1` (racemic) [Epoxiconazole], the Density in data set [1] was 1.42^a g/mL.

As to `CNC(=O)c1cc(Cl)cc(C)c1NC(=O)c1cc(Br)nn1-c1ncccc1Cl` [Chlorantraniliprole], the Density in data set [1] is 1.65^a g/mL.

For `CC(c1ccc(C(F)(F)F)nc1)S(C)(=O)=NC#N` (stereo not drawn) [Sulfoxaflor], the Density in data set [1] was 1.34^a g/mL.

As to `CNC(=O)c1cc(C#N)cc(C)c1NC(=O)c1cc(Br)nn1-c1ncccc1Cl` [Cyantraniliprole], the Density in data set [1] is 1.65^a g/mL.

In the case of `N#Cc1nn(-c2c(Cl)cc(C(F)(F)F)cc2Cl)c(N)c1[S+]([O-])C(F)(F)F` (stereo not drawn) [Fipronil], the Density in data set [3] turned out to be 1.71 g/mL. In the data set “physchem”, this compound registered a solubility of 3.78 µg/mL (≈ 8.65 µM).

`CC[S+]([O-])c1c(C#N)nn(-c2c(Cl)cc(C(F)(F)F)cc2Cl)c1N` (stereo not drawn) [Ethiprole] gave a Density in data set [3] of 1.69 g/mL.

On to `O=C1C=C(N(Cc2ccc(Cl)nc2)CC(F)F)CO1` [Flupyradifurone], for which, in data set [3], the Density was determined as 1.43 g/mL. Also, in data set [2], the “Solubility in Water” value was determined as 3200 µg/mL (≈ 11100 µM).

Regarding `COC(=O)Nc1nc2ccccc2[nH]1` [Carbendazim], the Density is 1.45 g/mL in data set [3] and 1.39^a g/mL in data set [1]. The solubility in “physchem” stood at 8 µg/mL (≈ 41.8 µM).

Take `CC(C)(C)C(O)C(Oc1ccc(Cl)cc1)n1cncn1` (stereo not drawn) [Triadimenol]: in data set [3], the Density worked out at 1.27 g/mL. Moreover, in the data set “physchem”, the solubility was determined as 72 µg/mL (≈ 243 µM).

On to `CC(C)NC(=O)N1CC(=O)N(c2cc(Cl)cc(Cl)c2)C1=O` [Iprodione], for which, in data set [3], the Density is given as 1 g/mL. Also, the concentration in solution in “physchem” (solubility) came to 6.8 µg/mL (≈ 20.6 µM).

Turning to `Cc1c(F)c(F)c(COC(=O)[C@@H]2[C@H](/C=C(\Cl)C(F)(F)F)C2(C)C)c(F)c1F` (racemic) [Tefluthrin], the Density in data set [3] was 1.48 g/mL.

Regarding `O=c1c2cc(F)ccc2nc(-n2cncn2)n1-c1ccc(Cl)cc1Cl` [Fluquinconazole], the Density in data set [3] is 1.58 g/mL.

`CNC(=O)/C(=N/OC)c1ccccc1Oc1ccccc1` [Metominostrobin]: the Density in data set [1] was 1.13^a g/mL.

For `CO/C=C(/C(=O)OC)c1ccccc1COc1cccc(C(F)(F)F)n1` [Picoxystrobin], the Density in data set [1] was 1.28^a g/mL. Moreover, the “Solubility in Water” value in data set [4] was 8.30^a mg/L.

With `O=[N+]([O-])c1cc(C(F)(F)F)c(Cl)c([N+](=O)[O-])c1Nc1ncc(C(F)(F)F)cc1Cl` [Fluazinam], the Density in data set [1] is 1.80^a g/mL. Moreover, the “Solubility in Water” value in data set [4] is 0.68^a mg/L.

Regarding Spinosad, in data set [1], the Density was 1.20^a g/mL. The “Solubility in Water” value in data set [4] is on record as 295^a mg/L.

With `CO/N=C(/C1=NOCCO1)c1ccccc1Oc1ncnc(Oc2ccccc2Cl)c1F` [Fluoxastrobin], the Density in data set [3] is reported as 1.42 g/mL. The solubility in data set [2] came out at 2.29 µg/mL (≈ 4.99 µM).

For the compound `CC(C)(C)C(O)(CCc1ccc(Cl)cc1)Cn1cncn1` (stereo not drawn) [Tebuconazole], the Density in data set [3] is 1.25 g/mL.

Turning to `O=C(NCCc1ncc(C(F)(F)F)cc1Cl)c1ccccc1C(F)(F)F` [Fluopyram], the Density in data set [3] was found to be 1.53 g/mL. Besides, the concentration in solution in data set [2] (solubility) came to 16 µg/mL (≈ 40.3 µM).

As for `CC(C)C1CCC(Cc2ccc(Cl)cc2)C1(O)Cn1cncn1` (stereo not drawn) [Ipconazole], the Density in data set [3] is 1.2 g/mL. The same compound showed a solubility in “physchem” of 9.34 µg/mL (≈ 28 µM).

`CO/C=C(/C(=O)OC)c1ccccc1Oc1cc(Oc2ccccc2C#N)ncn1` [Azoxystrobin]: the Density in data set [1] is 1.34^a g/mL. The “Solubility in Water” value in data set [4] is on record as 6.01^a mg/L.

With `CNC(=O)Oc1cc(C)c(SC)c(C)c1` [Methiocarb], in data set [3], the Density is reported as 1.25 g/mL. Further, the solubility in data set [2] stood at 27 µg/mL (≈ 120 µM).

Turning to `Cc1cc(C(F)(C(F)(F)F)C(F)(F)F)ccc1NC(=O)c1cccc(I)c1C(=O)NC(C)(C)CS(C)(=O)=O` [Flubendiamide], the Density in data set [1] is listed as 1.78^a g/mL.

Regarding `COC(=O)N(OC)c1ccccc1COc1ccn(-c2ccc(Cl)cc2)n1` [Pyraclostrobin], the Density in data set [1] is reported as 1.34^a g/mL. Further, the “Solubility in Water” value in data set [4] is 26.0^a mg/L.

For Abamectin, the Density in data set [1] is 1.28^a g/mL. Further, the “Solubility in Water” value in data set [4] is 36.4^a mg/L.

Take `Cc1nn(C)c(F)c1C(=O)Nc1ccccc1C(C)CC(C)C` (stereo not drawn) [Penflufen]: the Density in data set [1] is reported as 1.18^a g/mL. In addition, the “Solubility in Water” value in data set [2] turned out to be 10.9 µg/mL (≈ 34.3 µM).

In the case of Spinetoram, in data set [1], the Density was 1.18^a g/mL. The “Solubility in Water” value in data set [4] was 162^a mg/L.

In turn, `CS/C(C)=N\OC(=O)N(C)SN(C)C(=O)O/N=C(\C)SC` [Thiodicarb] registered a Density in data set [3] of 1.47 g/mL. For the same compound, the concentration in solution in data set [2] (solubility) came to 22.2 µg/mL (≈ 62.6 µM).

For the compound `CC12CC1(C)C(=O)N(c1cc(Cl)cc(Cl)c1)C2=O` (stereo not drawn) [Procymidone], the Density in data set [1] was 1.43^a g/mL.

For `N#C/N=C1\SCCN1Cc1ccc(Cl)nc1` [Thiacloprid], in data set [3], the Density was determined as 1.46 g/mL. The same compound had a solubility in data set [2] of 184 µg/mL (≈ 728 µM).

Compound `CC1(C)C(C=C(Cl)Cl)C1C(=O)OC(C#N)c1ccc(F)c(Oc2ccccc2)c1` (stereo not drawn) [Beta-Cyfluthrin] gave a Density in data set [3] of 1.35 g/mL. The “Solubility in Water” value in data set [2] stood at 0.0012 µg/mL (≈ 0.00276 µM).

One may read the solubility as how much of the substance goes into solution per volume. A lower solubility goes with little dissolved substance.
